Test results: US20240229097A1, “SYSTEM, METHOD, DEVICE AND MANUFACTURING METHOD THEREOF FOR DETECTING CELLULAR MECHANICAL FORCE” (Ruixin (Fuzhou) Technology Co., Ltd., priority 2021, published 2024)

Key:
Format in all cases: cell-based
[1] = tested on: non-small cell lung cancer cells A549; assay: MTT assay of cell viability of A549 cells treated with 5FU
Text: (§1) Specifically, this embodiment cultures non-small cell lung cancer cells A549 on multiple device for detecting cellular mechanical force, treats them with different doses of the cell proliferation inhibitor 5-fluorouracil (5-FU), and monitors cellular mechanical forces at different time points using the system for detecting cellular mechanical force or the method described in the tenth to twelfth embodiments or the fourteenth embodiment. Cell proliferation and cytotoxicity are monitored at different time points using the CCK-8 assay kit, with cell viability measured by the MTT assay serving as a control, generating the data for FIGS. 16,b and c.

[2] = tested on: non-small cell lung cancer cells A549; assay: Cell viability reflected by cellular mechanical force (micropillar light reflection device), A549 cells treated with 5FU
Text: This embodiment specifically provides using the cellular mechanical force information obtained from any of the system for detecting cellular mechanical force described in the tenth to twelfth embodiments or the cellular mechanical force detection method described in the fourteenth embodiment to monitor cell viability.
as §1

[3] = tested on: breast cancer cells MCF-7 multicellular aggregates; assay: 5-Fu drug sensitivity test on tumor cell multicellular aggregates on the cellular mechanical force detection device; details: MCF-7 aggregates, 200 μM 5-Fu, cultured for one day, FIG. 18
Method: More specifically, this embodiment provides a method for culturing a tumor cell multicellular aggregate on the device for detecting cellular mechanical force for drug sensitivity test, including the steps:
S1, Generation of tumor cell multicellular aggregates: FN 50 μg/mL is applied to the top of the micropillar of the device for detecting cellular mechanical force and sterilized with UV for 30 minutes; breast cancer cells MCF-7 (approximately 1×10^5 to 9×10^5 cells) are seeded on the top surface of the micropillars (number of micropillars is not limited) of the device for detecting cellular mechanical force, which is then immersed in 3dGRO™ Spheroid Medium (S3077) for more than 3 days to induce the formation of tumor cell multicellular aggregates.
S2, Applying the generated tumor cell multicellular aggregates to a 5-Fu drug sensitivity test: 200 μM of 5-Fu is added to the tumor cell multicellular aggregates and cultured for one day; in the test, before the addition of 5-Fu and one day of culture after the addition of 5-Fu on the device for detecting cellular mechanical force (with tumor cell multicellular aggregates, including the culture medium), light reflection signals are captured by the light signal detection device (CCD sensor) and cellular mechanical force distribution images are obtained using the light signal analysis device (ImageJ), as shown in FIG. 18. […]

[4] = different doses of 5FU, FIGS. 16,b and c

With `O=c1[nH]cc(F)c(=O)[nH]1` [5FU, 5-fluorouracil] the “cell viability measured by the conventional MTT assay” value [1, 4] was “dose-dependent decline”, the “change in cell viability by MTT assay” value ([1]; within 12 hours of 5FU treatment, FIG. 16,c) was “no significant change” and the “time at which a significant decrease trend of cellular mechanical force is observed” value ([2]; 0.5 μM treatment dose) was 6 h. For the same compound, the “time at which a significant decrease trend of cellular mechanical force is observed” value ([2]; 1 μM treatment dose) was 3 h, the “cellular viability reflected by mechanical force compared to the control group (DMSO)” value ([2]; different doses of 5FU for 24 hours, relative to MTT assay, FIG. 16,b) was “greater reduction” and the “cell viability reflected by cellular mechanical forces” value [2, 4] was “dose-dependent decline”. For the same compound, the “cell viability of tumor cell multicellular aggregates” value [3] was “reduced” and the “reflection signals of tumor cell multicellular aggregates” value [3] was “noticeably weaken”.
